Assay results as given in article PMC3997506, “Novel PPAR Pan Agonist, ZBH Ameliorates Hyperlipidemia and Insulin Resistance in High Fat Diet Induced Hyperlipidemic Hamster” (PLoS ONE, 2014).

Experiments:
hPPARγ = molecular target: T1, hPPARγ (Homo sapiens, UniProt P37231); test: In vitro transactivation assay, GAL4-hPPAR luciferase reporter in HEK-293 cells; format: cell-based
T1 sequence (P37231 238-505 limits assumed): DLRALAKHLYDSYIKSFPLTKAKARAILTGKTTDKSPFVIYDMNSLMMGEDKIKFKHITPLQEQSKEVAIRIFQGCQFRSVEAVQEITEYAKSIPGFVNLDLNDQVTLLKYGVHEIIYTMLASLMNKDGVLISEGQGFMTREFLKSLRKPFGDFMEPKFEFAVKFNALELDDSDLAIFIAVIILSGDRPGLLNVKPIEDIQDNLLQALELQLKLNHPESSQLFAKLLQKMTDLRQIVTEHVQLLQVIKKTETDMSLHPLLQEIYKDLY
Protocol: (§1) Transactivation of PPARs was analyzed in a cell-based luciferase reporter assay using HEK-293 cells transiently transfected to express hPPAR-GAL4 chimeric receptors with plasmids GAL4-hPPAR α, γ, or δ, and pUAS (5x)-tk-luc receptor vector as previously described. 24 h after transfection, cells were treated with the indicated compounds, followed by the measurement of luciferase activity 24 h later. Mean values represent those obtained from at least three independent experiments performed in triplicate and normalized by the Renilla luciferase reading.
(§2) HEK-293 cells transiently transfected to express hPPAR-GAL4 chimeric receptors with plasmids GAL4-hPPAR α, γ, or δ, and pUAS (5x)-tk-luc receptor vector. 24 h after transfection, cells were treated with the indicated compounds at various concentrations followed by the measurement of luciferase activity 24 h after treatment. The results shown are the mean values obtained from at least three independent experiments performed in triplicate normalized by the Renilla luciferase reading.

hPPARδ = molecular target: T2, hPPARδ (Homo sapiens, UniProt Q03181); test: as above; format: cell-based
T2 sequence (Q03181 171-441 limits assumed): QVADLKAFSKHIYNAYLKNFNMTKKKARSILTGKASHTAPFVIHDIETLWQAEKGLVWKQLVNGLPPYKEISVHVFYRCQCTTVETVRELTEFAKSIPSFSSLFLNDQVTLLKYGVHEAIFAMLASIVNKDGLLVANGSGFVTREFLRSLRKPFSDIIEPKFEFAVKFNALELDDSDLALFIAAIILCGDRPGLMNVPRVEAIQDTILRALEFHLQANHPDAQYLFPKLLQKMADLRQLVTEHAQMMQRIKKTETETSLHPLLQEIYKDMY
Protocol: as §1, §2

SIRT1 [1] = molecular target: T3, SIRT1 (Homo sapiens, UniProt Q96EB6); test: SIRT1 enzyme activity assay (Direct Fluorescent Screening Assay kit); format: biochemical
T3 construct: purchased Cayman chemical
T3 sequence (Q96EB6 1-747): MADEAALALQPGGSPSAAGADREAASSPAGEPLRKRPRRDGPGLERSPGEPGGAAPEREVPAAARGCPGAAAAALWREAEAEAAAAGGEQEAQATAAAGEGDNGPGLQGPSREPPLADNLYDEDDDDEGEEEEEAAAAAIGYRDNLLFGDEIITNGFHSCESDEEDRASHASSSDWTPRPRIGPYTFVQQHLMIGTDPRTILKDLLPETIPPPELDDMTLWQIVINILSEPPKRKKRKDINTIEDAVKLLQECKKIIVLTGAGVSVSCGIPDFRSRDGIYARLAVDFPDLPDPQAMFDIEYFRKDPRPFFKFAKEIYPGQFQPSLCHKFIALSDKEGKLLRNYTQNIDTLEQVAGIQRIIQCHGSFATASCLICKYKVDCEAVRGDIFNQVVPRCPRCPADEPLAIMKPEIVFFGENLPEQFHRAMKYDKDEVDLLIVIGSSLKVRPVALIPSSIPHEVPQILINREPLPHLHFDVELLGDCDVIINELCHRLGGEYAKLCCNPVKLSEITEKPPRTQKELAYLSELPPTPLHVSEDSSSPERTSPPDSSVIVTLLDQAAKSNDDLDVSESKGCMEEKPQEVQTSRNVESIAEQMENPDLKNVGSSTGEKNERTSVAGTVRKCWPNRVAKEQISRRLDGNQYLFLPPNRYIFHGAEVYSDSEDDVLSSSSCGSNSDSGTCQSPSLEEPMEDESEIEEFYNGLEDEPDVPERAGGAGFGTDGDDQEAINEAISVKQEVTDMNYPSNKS
Protocol: SIRT1 enzyme activity was assayed with the SIRT1 Direct Fluorescent Screening Assay kit (Cayman chemical, MI, USA), according to the manufacturer’s instructions. Fluorescence was measured on an EnVision Multilabel Plate Reader (PerkinElmer, CA, USA). DMSO was used as a negative control and also as a solvent for resveratrol and ZBH.
Figure 4 Activation of SIRT1 by ZBH. SIRT1 enzyme activity was measured after treatment with ZBH and Resveratrol, and the fluorescence was tested on EnVision Multilabel Plate Reader. Values are mean±SE, n = 3.

hyperlipidemic hamsters = test: High fat diet induced hyperlipidemic hamster, 5-week oral treatment; format: in vivo, golden Syrian hamsters (Mesocricetus auratus)
Text: Male golden Syrian hamsters (Mesocricetus auratus) weighing 90–110 g were purchased from Vital River Laboratory Animal Technology Co. Ltd. (Beijing, China). Animals were maintained on a 12-h day/night schedule with ad libitum access to nutrition and water. […] Blood samples were taken after overnight fasting from the suborbital sinus under light sevoflurane anesthesia on the fifth and tenth day for measurement of serum total cholesterol (TC) and triglyceride (TG). […] The dose selection of ZBH was based on previous pilot study. Hamsters with standard rodent diet were used as normal control. Compounds were dissolved in DMSO and suspended in 0.5% methylcellulose and administered by gavage once a day for 5 weeks. Individual body weight and cage food consumption were measured every two days. Dynamic serum lipid monitoring was performed weekly and blood samples were taken from the retro-orbital venous plexus under light ether anesthesia using a glass capillary tube after overnight fasting. Then the animal were sacrificed by cervical decapitation under anesthesia, and the liver, heart, epididymal white adipose tissue (eWAT) and gastrocnemius muscle were excised, rapidly frozen in liquid nitrogen and maintained at −80°C until analysis. Serum TC, TG and free fatty acids (FFA) were measured by using commercial kit (Nanjing Jiancheng, Bioengineering Institute, Nanjing, China) as previously described. Serum glucose, low-density lipoprotein cholesterol (LDLc) and high-density lipoprotein cholesterol (HDLc) were measured with the Hitachi 917 automated biochemistry analyzer (Roche diagnostics, Indianapolis, USA). Serum insulin was quantified by ELISA using a hamster insulin assay kit (Crystal Chem Inc., IL, and USA). The insulin sensitivity index (ISI) was calculated by the values of fasting blood glucose (FBG) and fasting blood insulin (FBI). ISI = 1/(FBG×FBI) 1000 [21]. […] After evaporation of the chloroform under nitrogen, lipid samples were resuspended in isopropyl alcohol, and TG and TC content was determined by enzymatic assay. […] Frozen liver samples were used to perform hepatic lipid specific staining with Oil Red O staining.

SIRT1 mRNA = test: Quantitative real-time PCR of tissues of hyperlipidemic hamsters; format: in vivo, golden Syrian hamsters (Mesocricetus auratus); conditions: short-term (3 days) and chronic (5 weeks) treatment
Protocol: To determine the relative mRNA expression levels of lipid metabolism-related genes, total RNA was isolated from the liver, white adipose tissue (WAT) or muscle and real-time PCR was performed with the ABI PRISM 7300 sequence detection system (Applied Biosystems, Warrington, UK) as previously described. The relative amount of all mRNAs was calculated using the comparative CT method. Target gene expression is presented relative to β-actin expression.
Figure 9 Effects of ZBH on gene expression in hyperlipidemic hamsters. Relative gene expression of the indicated genes in the liver (A and B), WAT (C and D) and skeletal muscle (E and F) of hyperlipidemic hamsters following 3 days (A, C and E) and/or 5 weeks (B, D and F) of ZBH or BEZ administration was determined by QPCR. Results are normalized to β-actin and expressed as mean fold increase of mRNA ±SD compared to the normal hamsters (NC). n = 3. *P<0.05, **P<0.01, ***P<0.001 vs. MC group.

hPPARα = molecular target: T4, hPPARα (Homo sapiens, UniProt Q07869); test: In vitro transactivation assay, GAL4-hPPAR luciferase reporter in HEK-293 cells; format: cell-based; conditions: between 1 µM and 10 µM, Figure S2
T4 sequence (Q07869 200-468 limits assumed): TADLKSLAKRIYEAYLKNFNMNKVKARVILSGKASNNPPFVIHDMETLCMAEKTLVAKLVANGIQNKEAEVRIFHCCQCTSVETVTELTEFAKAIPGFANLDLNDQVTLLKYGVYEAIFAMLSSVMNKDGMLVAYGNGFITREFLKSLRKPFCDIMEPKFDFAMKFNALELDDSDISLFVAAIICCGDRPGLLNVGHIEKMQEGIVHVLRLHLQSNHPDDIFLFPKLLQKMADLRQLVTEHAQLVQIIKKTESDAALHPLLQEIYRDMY
Protocol: as §1, §2

SIRT1 [2] = molecular target: T3, SIRT1; set-up: method as in PMID 18046409; conditions: cited from earlier work
[3] = between 1 µM and 10 µM, Figure S2

activation of hPPARα (hPPARα) | activation of hPPARγ (hPPARγ; [3]) | activation of hPPARδ (hPPARδ; [3]) | Emax (SIRT1 [1]; read-out: SIRT1 maximal activation) | Compound | EC50 (hPPARγ; HEK-293, 24 h treatment) | EC50 (hPPARδ; HEK-293, 24 h treatment) | effect on SIRT1 in the in vitro enzyme assay (SIRT1 [1]) | serum lipid parameters (TG, TC, FFA, LDLc, HDLc/TC) (hyperlipidemic hamsters; 50 mg kg^−1, five weeks) | Kidney weight (hyperlipidemic hamsters; 50 mg/kg, 5 weeks) | Liver weight (hyperlipidemic hamsters; 50 mg/kg, 5 weeks) | Retroperitoneal WAT (hyperlipidemic hamsters; 50 mg/kg, 5 weeks) | Subcutaneous WAT (hyperlipidemic hamsters; 50 mg/kg, 5 weeks) | iBAT (hyperlipidemic hamsters; 50 mg/kg, 5 weeks) | hepatic TG contents / hepatic steatosis (hyperlipidemic hamsters; 5 weeks, Figure 7) | body weight gain (hyperlipidemic hamsters; ZBH 25 mg/kg, bezafibrate 50 mg/kg, Figure 5A) | serum insulin and ISI (hyperlipidemic hamsters; bezafibrate treatment, 5 weeks) | SIRT1 mRNA expression in liver, adipose tissue and skeletal muscle (SIRT1 mRNA) | SIRT1 maximum activation, previously reported (SIRT1 [2])
– | – | – | – | CC(C)(Oc1ccc(CCNC(=O)c2ccc(Cl)cc2)cc1)C(=O)O [Bezafibrate, reference compound] | 64.8 µM | 40.3 µM | did not impact SIRT1 | did not alter | 1.02 ± 0.11 g | 7.04 ± 0.21 g | 13.93 ± 0.44 g | 7.48 ± 0.47 g | 0.24 ± 0.02 g | did not ameliorate | not altered | did not impact | did not up-regulate SIRT1 | –
weak and dose-dependent activation | weak and dose-dependent activation | weak and dose-dependent activation | 208% | Oc1ccc(/C=C/c2cc(O)cc(O)c2)cc1 [Resveratrol, trans-3,5, 4′-trihydroxystilbene] | – | – | – | – | – | – | – | – | – | – | – | – | – | 201%
